Source: patent publication US20100190706A1, “Stable Non-Aqueous Pharmaceutical Compositions” (NOVO NORDISK A/S, priority 2007, published 2010)
Like-named read-outs stand apart in the source and are kept apart here.

Tests used:
[1] = cited from earlier work
[2] = Isoelectric point (pI) of the insulinotropic peptide; type: physicochemical
Excerpt: The pI of a protein can be determined experimentally by electrophoresis techniques such as electrofocusing:
A pH gradient is established in an anticonvective medium, such as a polyacrylamide gel. When a protein is introduced in to the system it will migrate under influence of an electric field applied across the gel. Positive charged proteins will migrate to the cathode. Eventually, the migrating protein reaches a point in the pH gradient where its net electrical charge is zero and is said to be focused. This is the isoelectric pH (pI) of the protein. The protein is then fixed on the gel and stained. The pI of the protein can then be determined by comparison of the position of the protein on the gel relative to marker molecules with known pI values.

[3] = protic, very hydrophilic and polar solvents; lyophilized from aqueous solution of pH 6.0; cited from earlier work

Compound | Dielectricity constant, ε* ([1]; 293.2 Kelvin) | other results
CC(O)CO (stereo not drawn) [1,2-propanediol [propylene glycol], 1,2-propanediol] | – | Dielectricity constant, ε* ([1]; 303.2 Kelvin): 27.5
CC(O)CCO (stereo not drawn) [1,3-butanediol] | 28.8 | –
OCCCO [1,3-propanediol] | 35.1 | –
CCO [Ethanol] | 25.3 | –
CC(C)O [Isopropanol] | 20.18 | –
CO [Methanol] | 33.0 | –
O [Water] | 80.1 | –
Arg34, Lys26(N∈-(γ-Glu(Na-hexadecanoyl)))-GLP-1(7-37) | – | pI [2]: 5.6
lysozyme: lysozyme lyophilized from aqueous solution of pH 6.0 (Klibanov et al) | – | solubility [3]: more than 10 mg/ml
